Experimental data taken from paper PMC10781750, “Structural basis of antiphage immunity generated by a prokaryotic Argonaute-associated SPARSA system” (Nature Communications, 2024).

Assays:
[1] = molecular target: T1, SPARSA (GsSir2/pAgo heterodimer) (Geobacter sulfurreducens, UniProt Q74DF6); test: NADase assay, residual NAD+ by NAD/NADH quantitation kit (absorbance […] nm); assay type: biochemical; details: 1 uM SPARSA, 10 uM NAD+, 2 uM gRNA and tDNA (required for activity), 10 mM HEPES pH 7.5, 125 mM KCl, 37 C
T1 construct: gene GSU1360; full-length GsSir2 and pAgo coexpressed in E. coli BL21(DE3); 6xHis-SPARSA (also His-SUMO version, SUMO cut by TEV); 1:1 heterodimer; with Short prokaryotic Argonaute (Piwi domain-containing protein)
T1 sequence (Q74DF6 1-587): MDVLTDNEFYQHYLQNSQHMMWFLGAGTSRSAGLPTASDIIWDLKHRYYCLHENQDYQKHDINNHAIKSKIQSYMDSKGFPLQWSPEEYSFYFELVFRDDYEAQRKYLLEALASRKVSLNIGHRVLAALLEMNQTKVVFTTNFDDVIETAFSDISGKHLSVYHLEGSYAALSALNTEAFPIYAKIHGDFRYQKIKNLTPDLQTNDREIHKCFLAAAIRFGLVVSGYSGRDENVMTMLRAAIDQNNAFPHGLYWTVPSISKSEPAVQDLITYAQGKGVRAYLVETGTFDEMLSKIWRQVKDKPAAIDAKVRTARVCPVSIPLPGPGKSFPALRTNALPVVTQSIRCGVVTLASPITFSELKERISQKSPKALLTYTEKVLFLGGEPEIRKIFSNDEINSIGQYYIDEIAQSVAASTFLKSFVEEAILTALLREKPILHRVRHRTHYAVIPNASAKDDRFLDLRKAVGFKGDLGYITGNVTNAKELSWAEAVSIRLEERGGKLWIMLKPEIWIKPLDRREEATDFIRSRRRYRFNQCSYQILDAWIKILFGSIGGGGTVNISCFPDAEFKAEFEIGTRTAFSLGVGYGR
T1 sequence (Q74DF5 1-473 partner): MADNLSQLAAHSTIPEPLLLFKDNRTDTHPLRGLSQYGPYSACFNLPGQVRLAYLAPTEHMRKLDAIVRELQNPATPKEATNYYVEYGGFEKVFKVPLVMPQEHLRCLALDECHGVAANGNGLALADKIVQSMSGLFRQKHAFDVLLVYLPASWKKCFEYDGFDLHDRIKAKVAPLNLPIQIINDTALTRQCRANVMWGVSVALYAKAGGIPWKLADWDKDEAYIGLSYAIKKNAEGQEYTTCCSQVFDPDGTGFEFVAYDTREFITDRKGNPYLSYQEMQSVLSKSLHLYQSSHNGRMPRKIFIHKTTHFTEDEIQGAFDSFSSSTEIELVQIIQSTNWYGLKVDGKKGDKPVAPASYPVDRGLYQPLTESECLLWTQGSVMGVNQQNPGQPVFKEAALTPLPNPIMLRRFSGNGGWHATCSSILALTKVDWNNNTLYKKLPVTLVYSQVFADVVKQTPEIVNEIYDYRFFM

[2] = molecular target: T1, SPARSA (GsSir2/pAgo heterodimer); test: cryo-EM structures ([…] A without, […] A with gRNA/tDNA); assay type: binding; details: endogenous NAD+ copurified; bound in Sir2 domain cleft between Rossmann fold and small domain, near N142 and H186; seen without and with gRNA/tDNA

In the case of `NC(=O)c1ccc[n+]([C@@H]2O[C@H](COP(=O)([O-])OP(=O)(O)OC[C@H]3O[C@@H](n4cnc5c(N)ncnc54)[C@H](O)[C@@H]3O)[C@@H](O)[C@H]2O)c1` [NAD^+], the “NADase assay, residual NAD+ by NAD/NADH quantitation kit (absorbance 450 nm)” value [1] is reported as “nearly no NAD^+ remained in the wild-type SPARSA” and the “cryo-EM structures (3.6 A without, 3.1 A with gRNA/tDNA)” value [2] is reported as “a density within the crevice near the catalytic residues N142 and H186 was observed”.
